Assay [1] deals with T1, HA1 adenosine receptor (Homo sapiens, UniProt P30542).
T1 sequence (P30542 1-326): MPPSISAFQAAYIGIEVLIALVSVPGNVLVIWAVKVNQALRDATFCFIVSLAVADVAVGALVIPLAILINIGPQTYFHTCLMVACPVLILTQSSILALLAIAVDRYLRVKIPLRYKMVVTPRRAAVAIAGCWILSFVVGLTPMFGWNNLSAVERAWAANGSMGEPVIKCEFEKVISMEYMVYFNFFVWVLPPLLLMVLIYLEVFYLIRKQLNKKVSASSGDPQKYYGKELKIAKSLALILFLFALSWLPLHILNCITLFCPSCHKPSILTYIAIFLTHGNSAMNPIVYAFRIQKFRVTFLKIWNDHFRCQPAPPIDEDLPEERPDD
Description: Human adenosine A1 receptor affinity (Ki hA1). It counts as binding.

The target in assay [2] is T2, human adenosine A2A receptor (Homo sapiens, UniProt P29274).
T2 construct: expressed in transfected cells; host or cells: CHO cells, Semliki Forest virus expression system; membrane preparation
T2 sequence (P29274 whole entry): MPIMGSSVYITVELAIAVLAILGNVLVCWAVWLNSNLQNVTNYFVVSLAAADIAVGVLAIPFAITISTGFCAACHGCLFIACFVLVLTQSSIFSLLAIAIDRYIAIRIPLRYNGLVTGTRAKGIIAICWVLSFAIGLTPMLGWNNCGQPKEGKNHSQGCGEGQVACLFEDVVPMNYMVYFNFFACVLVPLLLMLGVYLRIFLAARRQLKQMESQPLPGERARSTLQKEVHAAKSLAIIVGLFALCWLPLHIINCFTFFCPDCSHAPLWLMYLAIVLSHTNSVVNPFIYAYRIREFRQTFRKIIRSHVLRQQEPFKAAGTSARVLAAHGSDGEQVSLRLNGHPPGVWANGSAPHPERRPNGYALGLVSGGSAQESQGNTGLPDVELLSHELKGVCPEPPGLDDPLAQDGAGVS
Description: Human adenosine A2A receptor [3H]-SCH-58261 binding assay. The note with it: for selectivity (A1/A2a): ratio KiHA1 divided by KiHA2A; for Ki: recombinant human A2A in CHO cell membranes, [3H]-SCH-58261, Cheng-Prussoff, read-out: Ki hA2A.

Experimental findings from patent US6506772B1, “Substituted [1,2,4]triazolo[1,5a]pyridine derivatives with activity as adenosine receptor ligands” (Hoffmann-La Roche Inc., priority 2000, dated 2003) are described below.

`CCN(Cc1ccncc1)C(=O)c1cc(N)n2nc(-c3ccccn3)nc2c1` [Example 431, 5-Amino-2-pyridin-2-yl-[1,2,4]triazolo[1,5-a]pyridine-7-carboxylic acid ethyl-pyridin-4-ylmethyl-amide]: the affinity in assay [1] corresponds to a Ki of 1030 nM. For the same molecule, in assay [2], the “selectivity (A1/A2a)” value came to 31.2 and the Ki is 33.1 nM.

In the case of `CN(C)C(=O)C1CCCN1C(=O)c1cc(N)n2nc(-c3ccccn3)nc2c1` (stereo not drawn) [Example 432, 1-(5-Amino-2-pyridin-2-yl-[1,2,4]triazolo[1,5-a]pyridine-7-carbonyl)-pyrrolidine-2-carboxylic acid dimethyl amide], the inhibition constant Ki in assay [1] came to 2400 nM; in assay [2] it was 88 nM. Moreover, the “selectivity (A1/A2a)” value in assay [2] is given as 27.2.

The molecule `CC(C)N(Cc1ccccc1)C(=O)c1cc(N)n2nc(-c3ccccn3)nc2c1` [Example 433, 5-Amino-2-pyridin-2-yl-[1,2,4]triazolo[1,5-a]pyridine-7-carboxylic acid benzyl-isopropyl-amide] gave a Ki in assay [1] of 185 nM. For the same molecule, in assay [2], the “selectivity (A1/A2a)” value amounted to 11.8 and the Ki amounted to 15.6 nM.

With `Nc1cc(C(=O)N(Cc2ccccc2)Cc2ccccc2)cc2nc(-c3ccccn3)nn12` [Example 435, 5-Amino-2-pyridin-2-yl-[1,2,4]triazolo[1,5-a]pyridine-7-carboxylic acid dibenzylamide], the Ki in assay [1] was 121 nM; in assay [2], 6.4 nM. The “selectivity (A1/A2a)” value in assay [2] is 19.

As to `CCN(CCOC)C(=O)c1cc(N)n2nc(-c3nccs3)nc2c1` [Example 498, 5-Amino-2-thiazol-2-yl-[1,2,4]triazolo[1,5-a]pyridine-7-carboxylic acid ethyl-(2-methoxy-ethyl)-amide], the Ki in assay [1] came to 3990 nM. Also, in assay [2], the “selectivity (A1/A2a)” value turned out to be 21 and the Ki worked out at 190 nM.

A word on the Ki: it is the equilibrium dissociation constant of an inhibitor or competing ligand from its target.
